# “Also recorded” adds a separate entry of the source. {AltR1} = IDT Alt-R proprietary 5' end modification; {AltR2} = IDT Alt-R proprietary 3' end modification
# How the values were obtained:
# [1] = tested on: human polymorphonuclear leukocytes and macrophages; details: cited from earlier work
# pmel-I CD8 T cells = experiment: Cytotoxicity of CRISPR-Cas9 GPR84 knockout pmel-I CD8 T cells; assay type: cell-based, mouse
# Experimental: CRISPR-Cas9 GPR84 pmel-I T cells were prepared following the CRISPR-Cas9 method. Non-target EL4 cells (CFSE low—0.1 μM) and target EL4gp100 cells (CFSE high—[…]) were prepared. EL4gp100 CFSE high cells were prepared by pulsing EL4 with […] gp100 (Anaspec #AS62589) and incubating for 30 minutes at 37° C., 5% C02. Cells were subsequently washed, pelleted, resuspended at 1×10^6 cells/ml, and mixed at 1:1 ratio. 1×10^5 of the mixed cells were plated into a 96-well round-bottom plate. In technical duplicate or triplicate GPR84 knockout or no target control CD8 […] T cells were added to wells to create an effector to target ratio of 0.5:1, 0.25:1, and 0.12:1 and incubated for 24 hours at 37° C., 5% C02. Cells were then harvested, stained with anti-CD8 to remove the T cell population and the percent specific lysis was captured by flow cytometry.
# Isolated pmel-I splenocytes were plated at a density of 2.5×10^6 in 1 ml of cRPMI-1640 containing 300 ng/ml anti-mouse CD3 (Biolegend #100340, clone 145-2C11), 500 IU/ml IL-2, 5 ng/ml IL-7 (PreproTech #217-17), and 100 ng/ml IL-15 (PreproTech #210-15) into a 24-well plate. Cells were incubated at 37° C., 5% CO2 for 48 hours. Cells were then pelleted and suspended to a concentration of 4×10^5 cells/ml in fresh cRPMI-1640 with 500 IU/ml IL-2 and cultured for an additional 24 hours at 37° C., 5% CO2. Before electroporation, T media was prepared consisting of modified cRPMI-1640 (20% FBS, 500 IU/ml IL-2, and no antibiotics). 615 μl of fresh T media was pipetted into 24-well plates. Preparation of CRISPR-Cas9 complexes and electroporation of primary T cells were conducted following the Alt-R CRISPR-Cas9 system using the Neon Transfection System instructions provided by Integrated DNA Technologies (IDT Coralville, IO). The program used for electroporation consisted of 1600V, 10 ms, and three pulses. […] Cells were counted 48 hours after electroporation and cRPMI-1640 supplemented with 500 IU/ml IL-2 was added to adjust the cell density to 4×10^5 cells/ml. […]
# [2] = cited from earlier work
# [3] = phase II study; cited from earlier work
# [4] = tested on: macrophages, fibroblasts, myofibroblasts, and epithelial cells; details: cited from earlier work
# [5] = model of diet-induced obesity; cited from earlier work
# CD8 OT-I T cells = experiment: In vivo vaccination antigen titration; parameters: species or system mouse; OT-I proliferation response, lymph node: dose or concentration left out as unconfirmed
# Experimental: C57BL/6N mice were first administered 200 μg cyclophosphamide dissolved in PBS by intraperitoneal injection to induce minor lymphodepletion. 48 hours after lymphodepletion, mice were intravenously adoptively transferred 2×10^6 CFSE labeled CD8 OT-I T cells. Five hours later, mice were vaccinated by 100 μl subcutaneous injection with reducing doses of […] (SEQ ID NO: 1) (Bachem #4033142.0001) in incomplete Freund's adjuvant (IFA) (Thermo #77145). Study ended 96 hours post-vaccination and lymph node tissue was isolated for analysis. Single-cell suspensions of lymph node were stained following the immune profiling by flow cytometry method. Vaccine effectiveness was determined by the percent proliferation of adoptively transferred cells. The sub-optimal vaccine dose was then selected as the amount of antigen that elicited a 50% response.
molecule,measurement,setting,value
CCCCCCCCNc1cc(=O)[nH]c(=O)[nH]1 [6-OAU],chemotaxis,[1],increase chemotaxis
"crGPR84: CRISPR-Cas9 guide RNA (SEQ ID NO: 2) used to knock out GPR84 in pmel-I CD8 T cells (guide CUCGAGCACUGGACCAAUACGUUUUAGAGCUAUGCU; RNA, 5' {AltR1}, 3' {AltR2}, backbone not given here)",specific lysis of gp100 pulsed EL4 target cells,"pmel-I CD8 T cells; 0.12:1 effector to target ratio, crNTC 38.6%",52.3%
same,specific lysis of gp100 pulsed EL4 target cells,"pmel-I CD8 T cells; 0.25:1 effector to target ratio, no target control 55.9%",72.5%
same,cytotoxicity vs no target control,pmel-I CD8 T cells; 0.5:1 effector to target ratio,did not find a significant difference
CCCCCc1cccc(CC(=O)O)c1 [PBI-4050],forced vital capacity,[2]; combination therapy with pirfenidone,worsened forced vital capacity
same,inflammatory and fibrotic biomarkers,[2]; patients treated with PBI-4050,"significant increase in IL-9, IL-7, MIP-Ibeta; also recorded: increase in IL-9, IL-7, MIP-1beta"
same,tolerability,"[2]; single agent and in combination with nintedanib or pirfenidone, phase II",well tolerated
same,ability to increase forced vital capacity,[2]; single agent and in combination with nintedanib,unsuccessful
same,HbA1c,[3],can reduce HbAlc
same,fibrotic capacity of cells,[4],reduced fibrotic capacity
same,glycemic control,[4],improved glycemic control
CCCCCc1cc(CCCCC)cc(CC(=O)O)c1 [PBI-4547],metabolic dysregulation (hyperglycemia and hypertriglyceridemia),[5],improved metabolic dysregulation
SIINFEKL,"OT-I proliferation response, predicted","CD8 OT-I T cells; 0.07 g SIINFEKL, selected sub-optimal vaccine dose",50%
same,"OT-I proliferation, lymph node","CD8 OT-I T cells; first five concentrations of SIINFEKL in IFA, 96 hours",~100%
same,"OT-I proliferation response, lymph node",CD8 OT-I T cells; in IFA,below 50%

# Source: US20240358705A1, “COMPOSITIONS AND METHODS FOR TREATMENT OF CANCER” (Board of Supervisors of Louisiana State University and …, priority 2021, published 2024)
